# Results reported in patent US20010014444A1, “Gene regulator fusion proteins and methods of using the same for determining resistance of a protein to a drug targeted thereagainst” (priority 1998, published 2001).
# Assays:
# [1] = tested on: inactive HIV protease (164) [D25E] (pL448.2); assay: Blue/white colony color assay, HIV-PR-LacI fusion protein / β-galactosidase reporter two plasmid system; assay type: cell-based; conditions: E. coli containing pL448.2; Bluogal indicator media with arabinose inducer, supplemented with indinavir at various concentrations; also blue without indinavir
# Method: Three E. coli strains, each containing a reporter plasmid for expression of β-galactosidase, and a HIV-PR-LacI expression plasmid for expression of a HIV-PR-LacI fusion protein, were tested using the blue/white color assay of the present invention. These strains were designed to be identical except for mutations within the HIV-PR regions, as set forth below:
# Plasmid pL446.1 expresses a fusion protein containing HIV-PR and the LacI gene repressor. Expression is mediated by the ARAB promoter/operator and expression is induced by addition of arabinose sugar to the growth medium.
# Media plates were prepared by adding to standard Luria Broth Agar, per liter of Luria Broth Agar, 2,000 μl of 100 mg/ml Ampicillin, 800 μl of 34 mg/ml Chloramrphenicol, 1 ml 1M IPTG. Similarly, indicator media was prepared by adding Bluogal (Life Technologies Inc.) to the media, 16.8 ml Bluogal stock (2% in dimethyl formamide) per liter of Luria Broth Agar. […] The E. coli strains were then plated onto the indicator media and allowed to grow for about 16 hours.
# [2] = tested on: HIV-PR variants expressing the resistance-conferring mutations V82T or I84V; assay: Colony color assay with site directed HIV-PR variants of known genotype; assay type: cell-based; conditions: plate with indinavir (MK-639) and Bluogal; only colonies with V82T or I84V variants were white; whiter with V82T and I84V than with V82T
# Method: Site directed mutagensis was used to construct HIV-PR gene variants encoding the mutations 1) [D25E] […] These variant genes were put into fusion protein expression plasmids in the manner set forth in Example 1, and the resulting fusion protein expression plasmids and a β-galactosidase reporter plasmid expression were subcloned into E. coli, which were then plated on indicator media designed to report E. coli having HIV-PR activity as white colonies and E. coli without HIV-PR activity as blue colonies.
# In the method of the present invention, β-galactosidase activity is regulated indirectly by activity of the HIV-PR in the fusion protein expression plasmid. All the E. coli cells used were identical and expressed similar HIV-PR-LacI fusion proteins, except that the HIV-PR genotype is different for different colonies.
smiles,measurement,setting,value
CC(C)(C)NC(=O)[C@@H]1CN(Cc2cccnc2)CCN1C[C@@H](O)C[C@@H](Cc1ccccc1)C(=O)N[C@H]1c2ccccc2C[C@H]1O [indinavir],color of E. coli colonies on indicator media,[1],blue
same,color of E. coli colonies on plate with indinavir and color indicator,[2],white
